# Assay results from article PMC11472313, “Development of Fragment-Based Inhibitors of the Bacterial Deacetylase LpxC with Low Nanomolar Activity” (Journal of Medicinal Chemistry, 2024).
# Columns and labels:
# [1] = test system: E. coli LpxC (EcLpxC); settings: cited from earlier work
# [2] = test system: P. aeruginosa LpxC (PaLpxC); settings: cited from earlier work
# [3] = biological target: T1, LasB (Pseudomonas aeruginosa, UniProt Q02RJ6); settings: cited from earlier work
# T1 construct: The elastase LasB of P. aeruginosa is a secreted metalloprotease; endogenous in cells; host or cells: P. aeruginosa PA14 culture supernatant
# [4] = test system: E. coli BL21(DE3); settings: cited from earlier work
# [5] = biological target: T2, E. coli LpxC C63A (Escherichia coli, UniProt P0A725, C63A); settings: versus (2R,3S)-10; cited from earlier work
# T2 construct: made in house; host or cells: E. coli BL21(DE3)
# [6] = biological target: T2, E. coli LpxC C63A; assay: LC–MS/MS-based determination of KM; assay type: biochemical; settings: substrate 1, LC–MS/MS-based assay
# Experimental: In order to determine the inhibitory activities of the compounds of interest toward E. coli LpxC, a fluorescence-based enzyme assay was deployed, in which the formed deacetylated natural product UDP-3-O-[(R)-3-hydroxymyristoyl]glucosamine (2) is transformed into a fluorescent isoindole with o-phthaldialdehyde and 2-mercaptoethanol.[48],[49] […] The KM of E. coli LpxC C63A was determined experimentally using a mass spectrometry-based LpxC assay (Figure S8, Supporting Information, vide infra).
# Generally, the LC–MS/MS-based method represents an alternative to analyze compounds, which cannot be tested in the fluorescence-based assay, like primary amines and intrinsically fluorescent compounds. Additionally, it offers the advantage that lower substrate concentrations (10%) are used in the established protocol compared to the fluorescence-based assay, in which the detection of respectively low product concentrations would be difficult to detect due to inherently high background fluorescence. […] Additionally, the KM of E. coli LpxC C63A could be determined using the LC–MS/MS-based method (Figure S8, Supporting Information, vide supra). […]
# The values of KM and vmax for the E. coli LpxC C63A- as well as the P. aeruginosa LpxC-catalyzed deacetylation of UDP-3-O-[(R)-3-hydroxymyristoyl]-N-acetylglucosamine (1) were determined using the conditions of the established LC-MS/MS-based enzyme assay. […]
# [7] = biological target: T3, P. aeruginosa LpxC (Pseudomonas aeruginosa, UniProt P47205); assay: LC–MS/MS-based determination of KM; assay type: biochemical; settings: read-out: KM of the P. aeruginosa LpxC-catalyzed deacetylation; substrate 1, LC–MS/MS-based assay
# T3 construct: made in house; host or cells: E. coli BL21(DE3)
# Excerpt: Generally, the LC–MS/MS-based method represents an alternative to analyze compounds, which cannot be tested in the fluorescence-based assay, like primary amines and intrinsically fluorescent compounds. Additionally, it offers the advantage that lower substrate concentrations (10%) are used in the established protocol compared to the fluorescence-based assay, in which the detection of respectively low product concentrations would be difficult to detect due to inherently high background fluorescence. […] Additionally, the KM of E. coli LpxC C63A could be determined using the LC–MS/MS-based method (Figure S8, Supporting Information, vide supra).
# Determination of enzymatic parameters
# The values of KM and vmax for the E. coli LpxC C63A- as well as the P. aeruginosa LpxC-catalyzed deacetylation of UDP-3-O-[(R)-3-hydroxymyristoyl]-N-acetylglucosamine (1) were determined using the conditions of the established LC-MS/MS-based enzyme assay.
# The wells in a black, non-binding, 96-well fluorescence microplate (Greiner Bio One, Frickenhausen) were filled with 93 µL of varying concentrations of UDP-3-O-[(R)-3-hydroxymyristoyl]-N-acetylglucosamine (26.9 µM, 10.8 µM, 2.69 µM, 1.08 µM, 0.538 µM, 0.269 µM) in assay buffer (40 mM sodium morpholinoethanesulfonic acid (pH = 6.0), 80 µM dithiothreitol, 0.02% Brij 35). […]
# T1 sequence (Q02RJ6 198-498): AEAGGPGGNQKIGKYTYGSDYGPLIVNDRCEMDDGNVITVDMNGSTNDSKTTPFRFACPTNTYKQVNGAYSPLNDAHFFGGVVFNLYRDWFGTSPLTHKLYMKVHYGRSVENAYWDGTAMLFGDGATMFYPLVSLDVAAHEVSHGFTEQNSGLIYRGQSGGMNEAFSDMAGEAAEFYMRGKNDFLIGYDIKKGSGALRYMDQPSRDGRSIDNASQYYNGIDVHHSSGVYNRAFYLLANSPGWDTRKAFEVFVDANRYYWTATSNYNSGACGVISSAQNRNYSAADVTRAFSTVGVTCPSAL
# T2 sequence (P0A725 whole entry C63A): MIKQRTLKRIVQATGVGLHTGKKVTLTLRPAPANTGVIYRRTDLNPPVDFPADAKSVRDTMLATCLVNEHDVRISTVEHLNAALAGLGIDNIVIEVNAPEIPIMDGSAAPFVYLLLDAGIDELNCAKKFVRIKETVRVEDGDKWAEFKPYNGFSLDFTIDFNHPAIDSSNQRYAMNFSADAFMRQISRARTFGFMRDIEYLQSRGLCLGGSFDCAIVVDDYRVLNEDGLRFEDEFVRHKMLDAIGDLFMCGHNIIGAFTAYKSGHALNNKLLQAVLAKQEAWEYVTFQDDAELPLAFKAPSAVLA
# T3 sequence (P47205 whole entry): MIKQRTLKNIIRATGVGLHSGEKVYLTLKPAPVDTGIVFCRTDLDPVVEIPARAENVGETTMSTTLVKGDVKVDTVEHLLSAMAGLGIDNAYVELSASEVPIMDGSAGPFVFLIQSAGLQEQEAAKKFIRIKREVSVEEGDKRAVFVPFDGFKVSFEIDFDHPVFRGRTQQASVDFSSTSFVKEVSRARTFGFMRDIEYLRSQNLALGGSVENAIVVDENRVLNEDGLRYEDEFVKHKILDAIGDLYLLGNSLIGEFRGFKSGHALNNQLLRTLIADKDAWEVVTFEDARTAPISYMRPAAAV
compound,measurement,setting,value
"O=c1ccn([C@@H]2O[C@H](CO/N=C/c3ccc(O)c(O)c3O)[C@@H](O)[C@H]2O)c(=O)[nH]1 [1-68A, 1–68A]",IC50,[1],27000 nM
CC(O)(c1ccc(O)cc1)C(NC(=O)c1ccc(C#CC#Cc2ccc(N)cc2)cc1)C(=O)NO (centres unmarked) [3b],Ki,[1],0.024 nM
C[C@@](OCc1ccc(-c2ccccc2)cc1)(C(=O)NO)[C@@H](O)c1ccccn1 [5b],IC50,[2],15 nM
C[C@@](OCc1ccc(-c2ccccc2)cc1)(C(=O)NO)[C@@H](O)c1cnc[nH]1 [5c],IC50,[2],0.8 nM
Cc1cc([C@H](O)[C@](C)(OCc2ccc(-c3ccccc3)cc2)C(=O)NO)no1 [5d],IC50,[2],0.4 nM
CCc1ccc(-c2ccc(C(=O)N[C@H](C(=O)NO)[C@@H](C)N)cc2)cc1 [7a],PaLpxC: IC50,[2],0.0005 µg/mL
CCc1ccc(-c2ccc(C(=O)N[C@H](C(=O)NO)[C@@H](C)NCC(=O)O)cc2)cc1 [7b],PaLpxC: IC50,[2],0.0004 µg/mL
CCc1ccc(-c2ccc(C(=O)N[C@H](C(=O)NO)[C@@H](C)NCc3ccccn3)cc2)cc1 [7d],PaLpxC: IC50,[2],0.041 µg/mL
"O=C(NO)[C@H](OCc1ccc(C#Cc2ccc(CN3CCOCC3)cc2)cc1)[C@H](O)COCc1ccccc1 [(2R,3R)-10]",LasB Inhibition at 20 μM,[3],n.i. (n.i.: <10% inhibition)
"O=C(NO)[C@H](OCc1ccc(C#Cc2ccc(CN3CCOCC3)cc2)cc1)[C@@H](O)COCc1ccccc1 [(2R,3S)-10]",LasB Inhibition at 20 μM,[3],n.i. (n.i.: <10% inhibition)
same,MIC E. coli BL21(DE3),[4],>64 µg/mL
"O=C(NO)[C@@H](OCc1ccc(C#Cc2ccc(CN3CCOCC3)cc2)cc1)[C@@H](O)COCc1ccccc1 [(2S,3S)-10]",MIC E. coli BL21(DE3),[4],4.0 µg/mL
same,fold higher LpxC inhibitory activity than its (2R)-configured diastereomer,[5],about 3 fold
"Cc1noc(C)c1COC[C@H](O)[C@H](OCc1ccc(C#Cc2ccc(CN3CCOCC3)cc2)cc1)C(=O)NO [(2S,3S)-40]",LasB Inhibition at 20 μM,[3],n.i. (n.i.: <10% inhibition)
CC(O)C(NC(=O)c1ccc(C#CC#Cc2ccc(N)cc2)cc1)C(=O)NO (centres unmarked) [LPC-011],Ki,[1],0.039 nM
"CCCCCCCCCCCC(O)CC(=O)OC1C(O)C(CO)OC(OP(=O)(O)OP(=O)(O)OCC2OC(n3ccc(=O)[nH]c3=O)C(O)C2O)C1NC(C)=O [compound 1, UDP-3-O-[(R)-3-hydroxymyristoyl]-N-acetylglucosamine]",Km,[6],3.6 µM
same,Km,[7],4.7 µM
